According to ChEMBL document CHEMBL1143191, “The synthesis and biological evaluation of a range of novel functionalized benzopyrans as potential potassium channel activators” (2008):

Key:
Type in all cases: functional, Thorax
Thoracic [1] = test: Vasorelaxation activity against phenylephrine-stimulated contraction in rat thoracic tissue at 40 uM; parameters: scale not given: the % may be the effect or the level left
Thoracic [2] = test: Vasorelaxation activity against phenylephrine-stimulated contraction in rat thoracic tissue assessed as time taken for relaxation at 10 uM
Thoracic [3] = test: Vasorelaxation activity against phenylephrine-stimulated contraction in rat thoracic tissue assessed as time taken for relaxation at 40 uM
Thoracic [4] = test: Vasorelaxation activity against phenylephrine-stimulated contraction in rat thoracic tissue at 20 uM in presence of glibenclamide; parameters: scale not given: the % may be the effect or the level left
Thoracic [5] = test: Vasorelaxation activity against phenylephrine-stimulated contraction in rat thoracic tissue at 10 uM; parameters: scale not given: the % may be the effect or the level left
Thoracic [6] = test: Vasorelaxation activity against phenylephrine-stimulated contraction in rat thoracic tissue at 1 uM; parameters: scale not given: the % may be the effect or the level left

## CC(C)(F)[C@@H]1COc2ccc(F)cc2C1C#Cc1ccccc1 (single isomer, unassigned)
Thoracic [1]
  Activity: 83%
Thoracic [2]
  Time: 55 min
Thoracic [3]
  Time: 33 min
Thoracic [4]
  Activity: 44%
Thoracic [5]
  Activity: 36%

## CC(C)(F)[C@@H]1COc2c(F)cccc2C1C#Cc1ccccc1 (single isomer, unassigned)
Thoracic [1]
  Activity: 92%
Thoracic [2]
  Time: 43 min
Thoracic [3]
  Time: 21 min
Thoracic [4]
  Activity: 30%
Thoracic [5]
  Activity: 28%

## CC(C)(F)[C@@H]1COc2ccc([N+](=O)[O-])cc2C1C#Cc1ccccc1 (single isomer, unassigned)
Thoracic [1]
  Activity: 88%
Thoracic [2]
  Time: 40 min
Thoracic [3]
  Time: 30 min
Thoracic [4]
  Activity: 30%
Thoracic [5]
  Activity: 43%

## CC(C)(F)[C@@H]1COc2c(F)cc(F)cc2C1C#Cc1ccccc1 (single isomer, unassigned)
Thoracic [1]
  Activity: 65%
Thoracic [2]
  Time: 41 min
Thoracic [3]
  Time: 24 min
Thoracic [5]
  Activity: 20%

## CC1(C)Oc2ccc(C#N)cc2[C@@H](N2CCCC2=O)[C@@H]1O [CROMAKALIM]
Thoracic [6]
  Activity: 56%
Thoracic [5]
  Activity: 72%
